These results are taken from ChEMBL document CHEMBL2406963, “Tetrazole and triazole as bioisosteres of carboxylic acid: discovery of diketo tetrazoles and diketo triazoles as anti-HCV agents” (Bioorg Med Chem Lett, 2013).

The test system of series [1] is Hepatitis C virus. Briefly: Inhibition of NS5A protein synthesis in HCV by Western blot analysis. As to conditions: Hepacivirus hominis. The series is classed as functional, organism-based. For orientation: Immunoblotting shows a protein as a band on a membrane.
A short description of series [2]: Cytotoxicity against human HuH7 cells. In kind it is cell-based, Huh-7.
In series [3] the test system is Hepatitis C virus. Briefly: Antiviral activity against HCV infected in human Huh7 cells assessed as inhibition of viral replication by measuring EGFP autofluorescence at 50 uM by CCK8 assay relative to control. The series is classed as functional, Hepacivirus hominis. As to conditions: Huh-7. For orientation: Tetrazolium dyes change colour on reduction, which living cells bring about.

The subject of series [4] is Hepatitis C virus. Briefly: Antiviral activity against HCV infected in human Huh7 cells assessed as inhibition of viral replication by measuring EGFP autofluorescence by CCK8 assay. In kind it is functional, organism-based, Hepacivirus hominis. To be noted: Huh-7.
Series [5] is described as follows: Selectivity index, ratio of CC50 for human HuH7 cells to EC50 for HCV. Also on record: species or system Huh-7.
Series [6] relates to Hepatitis C virus. The series is described as follows: Inhibition of viral genome mRNA expression in HCV by RT-PCR analysis. In kind it is functional, organism-based. As to conditions: Hepacivirus hominis.
The subject of series [7] is Hepatitis C virus. Briefly: Antiviral activity against HCV infected in human Huh7 cells assessed as inhibition of viral replication by measuring EGFP autofluorescence at 2 uM by CCK8 assay relative to control. As to conditions: Huh-7. In kind it is functional, Hepacivirus hominis.

pEC50: −log10 of the molar value.

As a reminder, the inhibition is the drop in the measured response relative to a control, in per cent. One may read the CC50 as the concentration that lowers cell viability or growth by half. The term pEC50 denotes the negative decadic logarithm of the EC50, by convention in mol/L. Consider `O=C(CC(=O)c1nnc[nH]1)c1ccc(OCc2ccc(F)cc2)cc1`, for which the inhibition entry in the series with Hepatitis C virus [1] and with Hepatitis C virus [6] was “Dose-dependent effect” throughout. The CC50 in series [2] was over 500 µM. Besides, in the series with Hepatitis C virus [3], the inhibition at 50 µM came out at 69.7%. The pEC50 in the series with Hepatitis C virus [4] is 5.41. In addition, the “Ratio CC50/EC50” value in series [5] is listed as over 128.

As for `O=C(CC(=O)c1nnn[nH]1)c1ccc(OCc2ccc(Cl)cc2)cc1`, the inhibition at 50 µM in the series on Hepatitis C virus [3] was 64.9%.

Take `O=C(CC(=O)c1ccccc1OCc1ccc(F)cc1)c1nnc[nH]1`: the inhibition at 50 µM with Hepatitis C virus [3] turned out to be 55%.

On to `O=C(CC(=O)c1nnc[nH]1)c1ccc(OCc2ccc(Cl)cc2)cc1`, for which the half-maximal cytotoxic concentration (CC50) in series [2] is over 500 µM. Further, in the series on Hepatitis C virus [3], the inhibition at 50 µM was determined as 70.2%. The pEC50 with Hepatitis C virus [4] was 5.19. In addition, in series [5], the “Ratio CC50/EC50” value is recorded as over 77.

As to `O=C(CC(=O)c1nnn[nH]1)c1ccc([N+](=O)[O-])cc1`, in the series on Hepatitis C virus [3], the inhibition at 50 µM stood at 14.7%.

With `O=C(CC(=O)c1ccccc1OCc1ccc(F)cc1)c1nnn[nH]1`, the inhibition at 50 µM in the series on Hepatitis C virus [3] turned out to be 6.8%.

Consider `O=C(CC(=O)c1nnn[nH]1)c1ccc(OCc2ccc(F)cc2)cc1`, for which the inhibition at 50 µM with Hepatitis C virus [3] was determined as 10.7%.

For the compound `O=C(CC(=O)c1nnn[nH]1)c1cccc(OCc2ccccc2)c1`, the inhibition at 50 µM with Hepatitis C virus [3] is 11.1%.

Regarding `O=C(CC(=O)c1nnn[nH]1)c1cccc(OCc2ccc(Cl)cc2)c1`, in the series with Hepatitis C virus [3], the inhibition at 50 µM was 43.6%.

For the compound `COc1ccc(C(=O)CC(=O)c2nnn[nH]2)cc1`, the inhibition at 50 µM with Hepatitis C virus [3] stood at 28.7%.

For the compound `O=C(CC(=O)c1ccccc1OCc1ccc(Cl)cc1)c1nnn[nH]1`, in the series with Hepatitis C virus [3], the inhibition at 50 µM amounted to 36.2%.

As to `O=C(CC(=O)c1nnn[nH]1)c1ccccc1`, in the series with Hepatitis C virus [3], the inhibition at 50 µM is -1.3%.

For the compound `O=C(CC(=O)c1nnc[nH]1)c1cccc(OCc2ccccc2)c1`, the inhibition at 50 µM in the series with Hepatitis C virus [3] worked out at 48.2%.

Take `O=C(CC(=O)c1nnc[nH]1)c1cccc(OCc2ccc(Cl)cc2)c1`: in the series with Hepatitis C virus [3], the inhibition at 50 µM is 29.2%.

Take `O=C(/C=C(\O)c1nc[nH]n1)c1ccc(Cc2ccc(F)cc2)o1` [S-1360]: the inhibition at 50 µM in the series with Hepatitis C virus [3] stood at 22.4%.

Regarding `O=C(CC(=O)c1ccccc1OCc1ccc(Cl)cc1)c1nnc[nH]1`, the inhibition at 50 µM in the series on Hepatitis C virus [3] was 53.8%.

In the case of `O=C(CC(=O)c1nnc[nH]1)c1ccccc1`, the inhibition at 50 µM in the series with Hepatitis C virus [3] was determined as 24.8%.

On to `O=C(/C=C(\O)c1nnn[nH]1)c1c[nH]c2ccc(Cl)cc12`, for which the inhibition at 50 µM in the series on Hepatitis C virus [3] was found to be 24.3%.

For `O=C(CC(=O)c1ccccc1OCc1ccccc1)c1nnc[nH]1`, in the series with Hepatitis C virus [3], the inhibition at 50 µM turned out to be 34.4%.

The compound `O=C(CC(=O)c1ccccc1OCc1ccccc1)c1nnn[nH]1` came in with a cytotoxic concentration (CC50) in series [2] of over 500 µM. In addition, the inhibition at 50 µM in the series with Hepatitis C virus [3] worked out at 67.6%. In the series with Hepatitis C virus [4], the negative-log EC50 (pEC50) is 5.04. Moreover, the “Ratio CC50/EC50” value in series [5] is reported as over 54.

For `O=C(CC(=O)c1ccco1)c1nnn[nH]1`, the inhibition at 50 µM with Hepatitis C virus [3] was 0.9%.

As to `O=C(CC(=O)c1ccco1)c1nnc[nH]1`, in the series with Hepatitis C virus [3], the inhibition at 50 µM came to 14.5%.

Regarding `CC(C)C(=O)OC[C@H]1O[C@@H](n2ccc(N)nc2=O)[C@](C)(F)[C@@H]1OC(=O)C(C)C` [MERICITABINE], the inhibition at 2 µM with Hepatitis C virus [7] is 75.3%.

In the case of `O=C(CC(=O)c1nnn[nH]1)c1ccc(OCc2ccccc2)cc1`, the inhibition at 50 µM in the series on Hepatitis C virus [3] worked out at 54.9%.

With `O=C(CC(=O)c1nnc[nH]1)c1ccc(OCc2ccccc2)cc1`, the inhibition at 50 µM in the series with Hepatitis C virus [3] was determined as 12.1%.

As to `O=C(CC(=O)c1nnn[nH]1)c1cccc(OCc2ccc(F)cc2)c1`, in the series with Hepatitis C virus [3], the inhibition at 50 µM worked out at 62.7%.

For `O=C(CC(=O)c1nnc[nH]1)c1cccc(OCc2ccc(F)cc2)c1`, in the series with Hepatitis C virus [3], the inhibition at 50 µM is 43.4%.
